Legend:
BMMC cells = test: Phosphorylation of proteins downstream of Syk kinase in the IgE receptor cascade, activated BMMC cells; assay type: cell-based, mouse; conditions: varying concentrations, FIG. 7
B-cell line BJAB = test: BJAB toxicity, Cell Titer Glo assay; assay type: cell-based; conditions: 18 hours incubation
Protocol: Seed 50 μl cells (1×10^6/ml) into each well containing 50 μl compound. The final vehicle concentration is 0.5% DMSO, 1.5% MeOH. Shake plates for 1 minute to mix cells and compound. Incubate plates at 37° C. (5% CO2) for 18 hours. Next day, harvest 50 μl cells from each well, add to 50 μl Cell Titer Glo reagent ([…]). Shake plates for 1 minute. Read on luminometer.

[1] = test system: bone marrow derived mast cells (BMMC); test: BMMC high cell density IgE activation: LTC4; assay type: cell-based, mouse; conditions: anti-IgE, second part of TABLE 1
How it was run: (§1)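 IgE-sensitized BMMC (1-3×10^6 cells/ml, MT buffer) were pretreated with compound for 1 h at 37 °C in 0.5% DMSO, then stimulated with DNP-BSA (6× stimulus, 60 ng/ml) for 1 h. Supernatant was taken, and cells were re-incubated 4–5 h in WEI-conditioned medium with compound. Mediators were quantified by ELISA.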

[2] = test system: Salmonella-Escherichia coli tester strains
[3] = test system: cultured human mast cells (CHMC); test: CHMC high cell density IgE activation: histamine; assay type: cell-based; conditions: anti-IgE activation
How it was run: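 IgE-sensitized CHMC at 1-2×10^6 cells/ml were pretreated with compound for 1 h at 37 °C (0.5% DMSO final), then anti-IgE-stimulated for 1 h and supernatant collected. Hexosaminidase was read with a fluorogenic substrate. Pellets were re-incubated 7 h with compound before supernatant ELISAs.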

[4] = in vitro chromosomal aberration assay
basophil cells = test: Basophil IgE activation: histamine release assay; assay type: cell-based, human; conditions: Basophils, anti-IgE
Protocol: The basophil activation assay was carried out using whole human peripheral blood from donors allergic to dust mites with the majority of the red blood cells removed by dextran sedimentation. Human peripheral blood was mixed 1:1 with 3% dextran T500 and RBCs were allowed to settle for 20-25 min. The upper fraction was diluted with 3 volumes of D-PBS and cells were spun down for 10 min at 1500 rpm, RT. Supernatant was aspirated and cells were washed in an equal volume MT-buffer. Finally, cells were resuspended in MT-buffer containing 0.5% DMSO in the original blood volume. 80 uL cells were mixed with 20 uL compound in the presence of 0.5% DMSO, in triplicate, in a V-bottom 96-well tissue culture plate. A dose range of 8 compound concentrations was tested resulting in a 10-point dose response curve including maximum (stimulated) and minimum (unstimulated) response. […] The cells were stimulated for 30 minutes at 37° C., 5% CO2. The plate was spun for 10 min at 1500 rpm at room temperature and 80 uL the supernatant was harvested for histamine content analysis using the histamine ELISA kit supplied by Immunotech. The ELISA was performed according to supplier's instructions.

[5] = test system: bone marrow derived mast cells (BMMC); test: BMMC high cell density IgE activation: IL-6; assay type: cell-based, mouse; conditions: anti-IgE, second part of TABLE 1
How it was run: as §1

[6] = test system: bone marrow derived mast cells (BMMC); test: BMMC high cell density IgE activation: hexosaminidase; assay type: cell-based, mouse; conditions: anti-IgE, second part of TABLE 1, read-out: BMMC anti-IgE hexos. IC50
How it was run: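 IgE-sensitized BMMC at 1-3×10^6 cells/ml preincubated 1 hour at 37° C. with compound (0.5% DMSO), then stimulated 1 hour with DNP-BSA (6× stimulus 60 ng/ml). Supernatant hexosaminidase measured with 2 mM 4-methylumbelliferyl-N-acetyl-glucosaminide substrate at 37° C., read at 5–30 minutes.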

With `CNC(=O)COc1cccc(Nc2ncc(F)c(Nc3ccc4c(c3)NCCO4)n2)c1` [R921219, N4-(1,4-Benzoxazin-6-yl)-5-fluoro-N2-[3-(N-methylamino)carbonylmethyleneoxyphenyl]-2,4-pyrimidinediamine] the “phosphorylation of various proteins downstream of Syk kinase” value (BMMC cells) was “inhibit”, the IC50 (B-cell line BJAB) was > 10000 nM and the IC50 [1] was 40 nM. For the same molecule, the Ames test result [2] was “test positive in tester strain TA1537, with and without metabolic activation”, the IC50 [3] was 162 nM and the clastogenic potential [4] was “not found to possess clastogenic potential”. It also gave an IC50 (basophil cells) of 25 nM.

With `CNC(=O)COc1cccc(Nc2ncc(F)c(Nc3cccc(O)c3)n2)c1` [R926508, 5-Fluoro-N4-(3-hydroxyphenyl)-N2-[3-(N-methylamino)carbonylmethyleneoxyphenyl]-2,4-pyrimidinediamine] the IC50 (B-cell line BJAB) was > 10000 nM, the IC50 [5] was 26 nM and the IC50 [6] was 86 nM. It also gave an IC50 [1] of 162 nM, an IC50 [3] of 105 nM and an IC50 (basophil cells) of 65 nM.
